Data taken from article PMC1851987, “Identification of the Endogenous Key Substrates of the Human Organic Cation Transporter OCT2 and Their Implication in Function of Dopaminergic Neurons” (PLoS ONE, 2007).
Marks after values point to notes of the source that are not given here.

What was measured:
[1] = test system: HTZ-146 cells; assay: MTT reduction cell viability assay, HTZ-146 cells; type: cell-based, human
Description: (§1) Cell viability was assessed in HEK-293 cells, human dopaminergic neuroblastoma cells (SH-SY5Y) and human glioblastoma cells (HTZ-146) by the MTT test as described.[22] […] For indication of metabolic activity, cells were treated with MTT reagent (15 µl of 1 mg/ml stock solution per well) for 1 h, and after drying of culture plates for 1 h at 37°C, the resulting formazan dye was extracted with isopropanol/HCl (100 µl 0.04 mol/l per well) and absorbance was determined spectrophotometrically at 568 nm. Results were in agreement with the data obtained by the tryptan blue exclusion method (data not shown).

[2] = test system: SH-SY5Y cells; assay: MTT reduction cell viability assay, SH-SY5Y cells; type: cell-based, human
Description: as §1

[3] = test system: SH-SY5Y cells; assay: Uptake of cyclo(his-pro) and salsolinol into SH-SY5Y cells with transport inhibitors; type: cell-based, human; conditions: substrates 10 µmol/l, 5 min; inhibitors 10 µmol/l (decynium-22 1 µmol/l)
Description: (§2) (D) Relative quantitative real-time expression of OCT2 mRNA in distinct areas of normal human brain and neuroepithelial tumors (TaqMan Assay) normalized to GAPDH.
(§3) For uptake experiments, cells were grown on polystyrene dishes of 60 mm diameter to at least 80% confluence. Prior to addition of test compounds, culture medium was replaced by 3 ml HEPES-modified Krebs buffer (140.0 mmol/l NaCl, 5.0 mmol/l KCl, 2.0 mmol/l CaCl2, 1.0 mmol/l MgCl2, 10.0 mmol/l HEPES, and 5.0 mmol/l D-glucose, adjusted to pH 7.40), and cells were left to equilibrate for 60 min at 37°C. Uptake was terminated after indicated times by washing cells with ice-cold buffer. Cells were lysed with 1 ml of 4 mmol/l perchloric acid and lysates subjected to LC-MS-MS quantification. Cellular protein content was determined after solubilization of perchloric acid precipitates with 1 ml of […] NaOH using the bicinchoninic assay (BCA Protein Assay Kit, Pierce).
(§4) Chromatographic separations were performed on Hypercarb (5 µm, 50×2.1 mm; Thermo Electron), Aquasil C18 (3 µm, 100×4.6 mm; Thermo Electron), or Hilic columns (5 µm, 100×3.0 mm; Waters Atlantis) by isocratic or gradient elution using 0.1% aqueous formic acid (A) and acetonitrile or methanol (B) as solvent system. For quantification, SRM transitions of a precursor ion [M+H]^+ into a specific fragment ion (peak area ratios relative to IS) were recorded in positive ESI mode at 1.0–1.5 mTorr collision pressure and 10–40 eV collision energy. External calibration curves were obtained from serial dilutions of the analyte in 4 mmol/l HClO4 by linear or logistic regression. Detection limit was at least 0.001 nmol/mg protein.

[4] = test system: HTZ-146 cells; assay: Uptake of cyclo(his-pro) and salsolinol into HTZ-146 cells with transport inhibitors; type: cell-based, human; conditions: substrates 10 µmol/l, 5 min; inhibitors 10 µmol/l (decynium-22 1 µmol/l)
Description: as §2, §3, §4

[5] = biological target: T1, norepinephrine transporter (NET) (Homo sapiens, UniProt P23975); assay: Specific uptake into norepinephrine transporter (NET) transfected HEK-293 cells; type: cell-based; conditions: 10 µmol/l, 5 min incubation
T1 construct: expressed in transfected cells; host or cells: HEK-293, stably transfected; cDNA from C; Pifl (University of Vienna)
Text: Pifl (University of Vienna).
1. Burnette WB, Bailey MD, Kukoyi S, Blakely RD, Trowbridge CG, et al. (1996) Human norepinephrine transporter kinetics using rotating disk electrode voltammetry. Anal Chem 68: 2932–2938. (0.90 MB TIF) Click here for additional data file.

[6] = substrate: O=C1NC(Cc2c[nH]cn2)C(=O)N2CCCC12; assay: cells, lysate or membranes; conditions: mean (s.e.m.), pH 7.4, 37.0 °C
[7] = 48 h, non-pretreated, read-out: EC50 (95% confidence interval), cell viability
[8] = other: specific uptake, 1 min of loading, n = 3

T1 sequence (P23975 whole entry): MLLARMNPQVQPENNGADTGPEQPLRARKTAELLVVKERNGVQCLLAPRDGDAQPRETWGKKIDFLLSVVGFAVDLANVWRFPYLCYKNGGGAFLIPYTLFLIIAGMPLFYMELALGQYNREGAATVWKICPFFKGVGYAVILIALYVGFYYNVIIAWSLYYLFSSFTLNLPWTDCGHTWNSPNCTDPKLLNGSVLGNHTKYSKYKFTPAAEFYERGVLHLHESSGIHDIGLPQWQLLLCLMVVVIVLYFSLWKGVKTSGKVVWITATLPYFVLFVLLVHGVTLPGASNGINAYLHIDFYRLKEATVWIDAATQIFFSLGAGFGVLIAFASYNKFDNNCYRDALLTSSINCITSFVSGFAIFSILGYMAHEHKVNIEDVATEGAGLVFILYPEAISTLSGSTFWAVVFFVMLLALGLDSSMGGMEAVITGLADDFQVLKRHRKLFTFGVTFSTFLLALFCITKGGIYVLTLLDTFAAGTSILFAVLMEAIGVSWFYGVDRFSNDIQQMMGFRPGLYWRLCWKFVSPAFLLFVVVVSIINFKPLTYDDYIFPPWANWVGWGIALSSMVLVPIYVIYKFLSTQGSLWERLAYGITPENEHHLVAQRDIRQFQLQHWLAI

| Molecule | effect of coincubated inhibitor on uptake of cyclo(his-pro) and salsolinol [3] | effect of coincubated inhibitor on uptake of cyclo(his-pro) and salsolinol [4] | Km ([6]; other: 1 min of loading) | Vmax ([6]; other: 1 min of loading) [µmol/min/mg] | also measured |
| --- | --- | --- | --- | --- | --- |
| C[C@]12N[C@H](Cc3ccccc31)c1ccccc12 [(+)-MK-801, reference compound] | – | – | – | – | effect on cell death caused by glutamate as well as salsolinol ([1]; (+)-MK-801 10 µmol/l present): attenuated; effect on cell death caused by glutamate as well as salsolinol ([2]; (+)-MK-801 10 µmol/l present): attenuated |
| Fc1ccc(C(OCCN2CCN(CCCc3ccccc3)CC2)c2ccc(F)cc2)cc1 [GBR12909] | not different from control conditions | not different from control conditions | – | – | – |
| CCN1/C(=C/c2ccc3ccccc3[n+]2CC)C=Cc2ccccc21.[I-] [decynium-22] | almost abolished | almost abolished | – | – | – |
| CNCCCN1c2ccccc2CCc2ccccc21 [desipramine] | not different from control conditions | not different from control conditions | – | – | – |
| N[C@@H](CCC(=O)O)C(=O)O [glutamate, reference compound] | – | – | – | – | EC50 [1, 7]: 585 µM; EC50 [2, 7]: 389 µM |
| CC(COc1ccccc1)N(CCCl)Cc1ccccc1 (stereo not drawn) [phenoxybenzamine] | almost abolished | almost abolished | – | – | – |
| NCCc1ccc(O)cc1 [tyramine, reference compound] | – | – | – | – | substrate of NET (specific uptake) [5]: excellent NET substrate |
| organic cation transporter OCT2 (wild-type 400R) (Homo sapiens; S270A) (protein) MPTTVDDVLEHGGEFHFFQKQMFFLLALLSATFAPIYVGIVFLGFTPDHRCRSPGVAELSLRCGWSPAEELNYTVPGPGPAGEASPRQCRRYEVDWNQSTFDCVDPLASLDTNRSRLPLGPCRDGWVYETPGSSIVTEFNLVCANSWMLDLFQSSVNVGFFIGSMSIGYIADRFGRKLCLLTTVLINAAAGVLMAISPTYTWMLIFRLIQGLVSKAGWLIGYILITEFVGRRYRRTVGIFYQVAYTVGLLVLAGVAYALPHWRWLQFTVALPNFFFLLYYWCIPESPRWLISQNKNAEAMRIIKHIAKKNGKSLPASLQRLRLEEETGKKLNPSFLDLVRTPQIRKHTMILMYNWFTSSVLYQGLIMHMGLAGDNIYLDFFYSALVEFPAAFMIILTIDRIGRRYPWAASNMVAGAACLASVFIPGDLQWLKIIISCLGRMGITMAYEIVCLVNAELYPTFIRNLGVHICSSMCDIGGIITPFLVYRLTNIWLELPLMVFGVLGLVAGGLVLLLPETKGKALPETIEEAENMQRPRKNKEKMIYLQVQKLDIPLN | – | – | – | – | Km [6, 8]: 74 (12) µmol/l; Vmax [6, 8]: 0.003 µmol/min/mg; Vmax/Km [6, 8]: 41 µl/mg protein/min |
| OCT2 variant R400C (Homo sapiens; R400C/S270A) (protein) MPTTVDDVLEHGGEFHFFQKQMFFLLALLSATFAPIYVGIVFLGFTPDHRCRSPGVAELSLRCGWSPAEELNYTVPGPGPAGEASPRQCRRYEVDWNQSTFDCVDPLASLDTNRSRLPLGPCRDGWVYETPGSSIVTEFNLVCANSWMLDLFQSSVNVGFFIGSMSIGYIADRFGRKLCLLTTVLINAAAGVLMAISPTYTWMLIFRLIQGLVSKAGWLIGYILITEFVGRRYRRTVGIFYQVAYTVGLLVLAGVAYALPHWRWLQFTVALPNFFFLLYYWCIPESPRWLISQNKNAEAMRIIKHIAKKNGKSLPASLQRLRLEEETGKKLNPSFLDLVRTPQIRKHTMILMYNWFTSSVLYQGLIMHMGLAGDNIYLDFFYSALVEFPAAFMIILTIDCIGRRYPWAASNMVAGAACLASVFIPGDLQWLKIIISCLGRMGITMAYEIVCLVNAELYPTFIRNLGVHICSSMCDIGGIITPFLVYRLTNIWLELPLMVFGVLGLVAGGLVLLLPETKGKALPETIEEAENMQRPRKNKEKMIYLQVQKLDIPLN | – | – | 51 (6)^# µmol/l | 0.001 | – |
| OCT2 variant A270S (Homo sapiens) (protein) MPTTVDDVLEHGGEFHFFQKQMFFLLALLSATFAPIYVGIVFLGFTPDHRCRSPGVAELSLRCGWSPAEELNYTVPGPGPAGEASPRQCRRYEVDWNQSTFDCVDPLASLDTNRSRLPLGPCRDGWVYETPGSSIVTEFNLVCANSWMLDLFQSSVNVGFFIGSMSIGYIADRFGRKLCLLTTVLINAAAGVLMAISPTYTWMLIFRLIQGLVSKAGWLIGYILITEFVGRRYRRTVGIFYQVAYTVGLLVLAGVAYALPHWRWLQFTVSLPNFFFLLYYWCIPESPRWLISQNKNAEAMRIIKHIAKKNGKSLPASLQRLRLEEETGKKLNPSFLDLVRTPQIRKHTMILMYNWFTSSVLYQGLIMHMGLAGDNIYLDFFYSALVEFPAAFMIILTIDRIGRRYPWAASNMVAGAACLASVFIPGDLQWLKIIISCLGRMGITMAYEIVCLVNAELYPTFIRNLGVHICSSMCDIGGIITPFLVYRLTNIWLELPLMVFGVLGLVAGGLVLLLPETKGKALPETIEEAENMQRPRKNKEKMIYLQVQKLDIPLN | – | – | 75 (11) µmol/l | 0.0032 | – |
| OCT2 variant K432Q (Homo sapiens; K432Q/S270A) (protein) MPTTVDDVLEHGGEFHFFQKQMFFLLALLSATFAPIYVGIVFLGFTPDHRCRSPGVAELSLRCGWSPAEELNYTVPGPGPAGEASPRQCRRYEVDWNQSTFDCVDPLASLDTNRSRLPLGPCRDGWVYETPGSSIVTEFNLVCANSWMLDLFQSSVNVGFFIGSMSIGYIADRFGRKLCLLTTVLINAAAGVLMAISPTYTWMLIFRLIQGLVSKAGWLIGYILITEFVGRRYRRTVGIFYQVAYTVGLLVLAGVAYALPHWRWLQFTVALPNFFFLLYYWCIPESPRWLISQNKNAEAMRIIKHIAKKNGKSLPASLQRLRLEEETGKKLNPSFLDLVRTPQIRKHTMILMYNWFTSSVLYQGLIMHMGLAGDNIYLDFFYSALVEFPAAFMIILTIDRIGRRYPWAASNMVAGAACLASVFIPGDLQWLQIIISCLGRMGITMAYEIVCLVNAELYPTFIRNLGVHICSSMCDIGGIITPFLVYRLTNIWLELPLMVFGVLGLVAGGLVLLLPETKGKALPETIEEAENMQRPRKNKEKMIYLQVQKLDIPLN | – | – | 78 (12) µmol/l | 0.0031 | – |
| OCT2 variant M165I (Homo sapiens; M165I/S270A) (protein) MPTTVDDVLEHGGEFHFFQKQMFFLLALLSATFAPIYVGIVFLGFTPDHRCRSPGVAELSLRCGWSPAEELNYTVPGPGPAGEASPRQCRRYEVDWNQSTFDCVDPLASLDTNRSRLPLGPCRDGWVYETPGSSIVTEFNLVCANSWMLDLFQSSVNVGFFIGSISIGYIADRFGRKLCLLTTVLINAAAGVLMAISPTYTWMLIFRLIQGLVSKAGWLIGYILITEFVGRRYRRTVGIFYQVAYTVGLLVLAGVAYALPHWRWLQFTVALPNFFFLLYYWCIPESPRWLISQNKNAEAMRIIKHIAKKNGKSLPASLQRLRLEEETGKKLNPSFLDLVRTPQIRKHTMILMYNWFTSSVLYQGLIMHMGLAGDNIYLDFFYSALVEFPAAFMIILTIDRIGRRYPWAASNMVAGAACLASVFIPGDLQWLKIIISCLGRMGITMAYEIVCLVNAELYPTFIRNLGVHICSSMCDIGGIITPFLVYRLTNIWLELPLMVFGVLGLVAGGLVLLLPETKGKALPETIEEAENMQRPRKNKEKMIYLQVQKLDIPLN | – | – | 78 (15) µmol/l | 0.0029 | – |
